Experiments:
[1] = target: T1, nicotinamide phosphoribosyltransferase (NAMPT) (Homo sapiens, UniProt P43490); assay type: biochemical
[2] = target: T1, nicotinamide phosphoribosyltransferase (NAMPT); assay: dissociation constant determination at […] °C, pH […]; assay type: binding

T1 sequence (P43490 whole entry): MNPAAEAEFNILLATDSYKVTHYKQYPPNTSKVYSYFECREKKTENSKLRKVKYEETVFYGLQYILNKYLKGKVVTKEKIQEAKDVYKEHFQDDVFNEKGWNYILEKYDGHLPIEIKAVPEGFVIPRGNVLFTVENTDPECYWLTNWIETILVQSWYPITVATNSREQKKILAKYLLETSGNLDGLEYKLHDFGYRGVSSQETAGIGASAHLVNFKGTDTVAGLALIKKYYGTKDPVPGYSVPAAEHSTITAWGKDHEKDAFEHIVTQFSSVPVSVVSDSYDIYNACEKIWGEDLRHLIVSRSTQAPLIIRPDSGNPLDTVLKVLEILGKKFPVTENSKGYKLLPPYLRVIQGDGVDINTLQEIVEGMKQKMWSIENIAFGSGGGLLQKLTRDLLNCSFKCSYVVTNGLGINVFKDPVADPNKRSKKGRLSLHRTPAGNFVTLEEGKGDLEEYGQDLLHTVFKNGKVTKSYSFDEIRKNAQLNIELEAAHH

Structure (SMILES) | Ki [1] [µM] | Kd [2] [µM]
O=[N+]([O-])c1ccc(O[C@@H]2O[C@H](COP(=O)(O)O)[C@@H](O)[C@H]2O)cc1 [5P-pNR, 5-phospho-p-nitrophenyl β-D-ribofuranoside] | 2.5 | –
NC(=O)c1ccc[n+]([C@@H]2O[C@H](COP(=O)([O-])O)[C@@H](O)[C@H]2O)c1 [NMN, nicotinamide mononucleotide] | – | 34 ± 2
